What follows are molecules tested against MAPK14 (human) (UniProt Q16539) (assay: Inhibtion of MAPK14 Kinase Activity).
Chain of MAPK14 (human) (Q16539 whole entry, looked up): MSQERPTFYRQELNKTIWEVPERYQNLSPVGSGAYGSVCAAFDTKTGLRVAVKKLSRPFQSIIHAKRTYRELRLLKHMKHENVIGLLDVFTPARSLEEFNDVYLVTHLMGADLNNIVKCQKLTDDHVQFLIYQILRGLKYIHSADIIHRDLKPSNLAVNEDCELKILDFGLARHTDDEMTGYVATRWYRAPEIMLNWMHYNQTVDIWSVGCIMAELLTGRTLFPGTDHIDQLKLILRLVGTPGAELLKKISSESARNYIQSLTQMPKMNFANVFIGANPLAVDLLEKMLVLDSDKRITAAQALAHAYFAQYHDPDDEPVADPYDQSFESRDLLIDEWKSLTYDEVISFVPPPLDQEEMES

Structure (SMILES) | IC50
Nc1c(C(=O)c2ccc(F)cc2F)ccc(=O)n1-c1c(F)cc(OCCCN[C@@H](C(=O)OC2CCCC2)c2ccccc2)cc1F | < 100 nM
CC(C)C[C@H](NCCCOc1cc(F)c(-n2c(N)c(C(=O)c3ccc(F)cc3F)ccc2=O)c(F)c1)C(=O)OC(C)(C)C | < 100 nM
CC(C)C[C@H](NCc1ccc(-n2c(N)c(C(=O)c3ccc(F)cc3F)ccc2=O)cc1)C(=O)OC1CCCC1 | < 100 nM
CC(C)C[C@H](NCCCOc1ccc(-n2c(N)c(C(=O)c3ccc(F)cc3F)ccc2=O)cc1)C(=O)O | < 100 nM
Nc1c(C(=O)c2ccc(F)cc2)ccc(=O)n1-c1c(F)cc(CN[C@@H](Cc2ccccc2)C(=O)O)cc1F | < 100 nM
CC(C)(C)OC(=O)[C@H](Cc1ccccc1)NCCCOc1cc(F)c(-n2c(N)c(C(=O)c3ccc(F)cc3F)ccc2=O)c(F)c1 | < 100 nM
CC(C)C[C@H](NC1CCC(Oc2cc(F)c(-n3c(N)c(C(=O)c4ccc(F)cc4)ccc3=O)c(F)c2)CC1)C(=O)O (some centres undefined) | < 100 nM
Nc1c(C(=O)c2ccc(F)cc2)ccc(=O)n1-c1c(F)cc(OC2CCC(N[C@@H](Cc3ccccc3)C(=O)O)CC2)cc1F (some centres undefined) | < 100 nM
Nc1c(C(=O)c2ccc(F)cc2F)ccc(=O)n1-c1ccc(OCCCN[C@H](C(=O)O)c2ccccc2)cc1 | < 100 nM
CC(C)(C)OC(=O)[C@@H](NCCCOc1cc(F)c(-n2c(N)c(C(=O)c3ccc(F)cc3F)ccc2=O)c(F)c1)c1ccccc1 | < 100 nM
Cc1cc(C(=O)c2ccc(=O)n(-c3c(F)cc(OCCCN[C@@H](Cc4ccccc4)C(=O)O)cc3F)c2N)ccc1F | < 100 nM
Nc1c(C(=O)c2ccc(F)cc2F)ccc(=O)n1-c1ccc(CN[C@@H](Cc2ccccc2)C(=O)OC2CCCC2)cc1 | < 100 nM
Cc1cc(C(=O)c2ccc(=O)n(-c3ccc(OCCCN[C@@H](Cc4ccccc4)C(=O)O)cc3)c2N)ccc1F | < 100 nM
CC(C)C[C@H](NCCCOc1cc(F)c(-n2c(N)c(C(=O)c3ccc(F)cc3F)ccc2=O)c(F)c1)C(=O)O | < 100 nM
CC(C)C[C@H](NCCCOc1ccc(-n2c(N)c(C(=O)c3ccc(F)cc3)ccc2=O)cc1)C(=O)O | < 100 nM
CC(C)C[C@H](NCc1cc(F)c(-n2c(N)c(C(=O)c3ccc(F)cc3F)ccc2=O)c(F)c1)C(=O)OC1CCCC1 | < 100 nM
Nc1c(C(=O)c2ccc(F)cc2)ccc(=O)n1-c1ccc(OCCCN[C@H](C(=O)OC2CCCC2)c2ccccc2)cc1 | < 100 nM
Nc1c(C(=O)c2ccc(F)cc2)ccc(=O)n1-c1c(F)cc(CN[C@@H](Cc2ccccc2)C(=O)OC2CCCC2)cc1F | < 100 nM
CC(C)C[C@H](NCCCOc1ccc(-n2c(N)c(C(=O)c3ccc(F)cc3)ccc2=O)cc1)C(=O)OC1CCCC1 | < 100 nM
Nc1c(C(=O)c2ccc(F)cc2F)ccc(=O)n1-c1ccc(CN[C@@H](Cc2ccccc2)C(=O)O)cc1 | < 100 nM
Nc1c(C(=O)c2ccc(F)cc2)ccc(=O)n1-c1ccc(CCN[C@H](C(=O)O)c2ccccc2)cc1 | < 100 nM
CC(C)C[C@H](NCCCOc1cc(F)c(-n2c(N)c(C(=O)c3ccc(F)cc3F)ccc2=O)c(F)c1)C(=O)OCCN1CCOCC1 | < 100 nM
Cc1cc(C(=O)c2ccc(=O)n(-c3c(F)cc(OCCCN[C@@H](Cc4ccccc4)C(=O)OC4CCCC4)cc3F)c2N)ccc1F | < 100 nM
CC(C)C[C@@H](NCCCOc1cc(F)c(-n2c(N)c(C(=O)c3ccc(F)cc3F)ccc2=O)c(F)c1)C(=O)OC1CCCC1 | < 100 nM
CC(C)C[C@H](NCc1ccc(-n2c(N)c(C(=O)c3ccc(F)cc3F)ccc2=O)cc1)C(=O)O | < 100 nM

Structure (SMILES) | IC50
O=C(c1ccc(F)cc1)c1ccc(=O)[nH]c1Nc1c(F)cc(CN[C@@H](Cc2ccccc2)C(=O)OC2CCCC2)cc1F | < 100 nM
Nc1c(C(=O)c2ccc(F)cc2F)ccc(=O)n1-c1c(F)cc(OCCCN[C@H](C(=O)OC2CC3CCC2C3)c2ccccc2)cc1F (some centres undefined) | < 100 nM
CC(C)C[C@H](NCCCOc1cc(F)c(-n2c(N)c(C(=O)c3ccc(F)cc3)ccc2=O)c(F)c1)C(=O)O | < 100 nM
CC(C)C[C@H](NCCCOc1cc(F)c(-n2c(N)c(C(=O)c3ccc(F)cc3F)ccc2=O)c(F)c1)C(=O)OC1CCCC1 | < 100 nM
Cc1cc(C(=O)c2ccc(=O)n(-c3c(F)cc(OCCCN[C@H](C(=O)O)c4ccccc4)cc3F)c2N)ccc1F | < 100 nM
Nc1c(C(=O)c2ccc(F)cc2F)ccc(=O)n1-c1ccc(OCCCN[C@@H](Cc2ccccc2)C(=O)OC2CCCC2)cc1 | < 100 nM
Nc1c(C(=O)c2ccc(F)cc2)ccc(=O)n1-c1c(F)cc(OC2CCC(N[C@H](C(=O)O)c3ccccc3)CC2)cc1F (some centres undefined) | < 100 nM
Cc1cc(C(=O)c2ccc(=O)n(-c3c(F)cc(OCCCN[C@@H](CC(C)C)C(=O)O)cc3F)c2N)ccc1F | < 100 nM
Cc1cc(C(=O)c2ccc(=O)n(-c3ccc(CN[C@@H](Cc4ccccc4)C(=O)O)cc3)c2N)ccc1F | < 100 nM
CC(C)C[C@@H](NCCCOc1cc(F)c(-n2c(N)c(C(=O)c3ccc(F)cc3F)ccc2=O)c(F)c1)C(=O)OC(C)(C)C | < 100 nM
NCC[C@H](NCCCOc1cc(F)c(-n2c(N)c(C(=O)c3ccc(F)cc3F)ccc2=O)c(F)c1)C(=O)OC1CCCC1 | < 100 nM
Nc1c(C(=O)c2ccc(F)cc2F)ccc(=O)n1-c1c(F)cc(OCCCN[C@@H](Cc2ccccc2)C(=O)OC2CCCC2)cc1F | < 100 nM
Nc1c(C(=O)c2ccc(F)cc2)ccc(=O)n1-c1c(F)cc(OCCCN[C@H](C(=O)OC2CCCC2)c2ccccc2)cc1F | < 100 nM
Nc1c(C(=O)c2ccc(F)cc2F)ccc(=O)n1-c1ccc(OCCCN[C@H](C(=O)OC2CCCC2)c2ccccc2)cc1 | < 100 nM
Nc1c(C(=O)c2ccc(F)cc2F)ccc(=O)n1-c1c(F)cc(OCCCN[C@H](C(=O)OC2CCCC2)c2ccccc2)cc1F | < 100 nM
Nc1c(C(=O)c2ccc(F)cc2)ccc(=O)n1-c1c(F)cc(OC2CCC(N[C@@H](Cc3ccccc3)C(=O)OC3CCCC3)CC2)cc1F (some centres undefined) | < 100 nM
Nc1c(C(=O)c2ccc(F)cc2F)ccc(=O)n1-c1c(F)cc(OCCCN[C@H](C(=O)OC2CCCC2)C2CCCCC2)cc1F | < 100 nM
Nc1c(C(=O)c2ccc(F)cc2)ccc(=O)n1-c1ccc(OCCCN[C@H](C(=O)O)c2ccccc2)cc1 | < 100 nM
CC(C)C[C@H](NC1CCC(Oc2cc(F)c(-n3c(N)c(C(=O)c4ccc(F)cc4)ccc3=O)c(F)c2)CC1)C(=O)OC1CCCC1 (some centres undefined) | < 100 nM
Nc1c(C(=O)c2ccc(F)cc2)ccc(=O)n1-c1ccc(OCCCN[C@@H](Cc2ccccc2)C(=O)O)cc1 | < 100 nM
CC(C)C[C@H](NCCCOc1cc(F)c(-n2c(N)c(C(=O)c3ccc(F)cc3)ccc2=O)c(F)c1)C(=O)OC1CCCC1 | < 100 nM
Nc1c(C(=O)c2ccc(F)cc2F)ccc(=O)n1-c1c(F)cc(OCCCN[C@H](C(=O)O)C2CCCCC2)cc1F | < 100 nM
CC(C)C[C@H](NCCCCCOc1cc(F)c(-n2c(N)c(C(=O)c3ccc(F)cc3F)ccc2=O)c(F)c1)C(=O)OC1CCCC1 | < 100 nM
Nc1c(C(=O)c2ccc(F)cc2)ccc(=O)n1-c1ccc(OCCCN[C@@H](Cc2ccccc2)C(=O)OC2CCCC2)cc1 | < 100 nM
CC(C)C[C@H](NCCCCCOc1cc(F)c(-n2c(N)c(C(=O)c3ccc(F)cc3)ccc2=O)c(F)c1)C(=O)O | < 100 nM

Structure (SMILES) | IC50
CC(C)C[C@H](NCCCOc1ccc(-n2c(N)c(C(=O)c3ccc(F)cc3F)ccc2=O)cc1)C(=O)OC1CCCC1 | < 100 nM
Nc1c(C(=O)c2ccc(F)cc2)ccc(=O)n1-c1c(F)cc(OC2CCC(N[C@H](C(=O)OC3CCCC3)c3ccccc3)CC2)cc1F (some centres undefined) | < 100 nM
Cc1cc(C(=O)c2ccc(=O)n(-c3ccc(OCCCN[C@H](C(=O)OC4CCCC4)c4ccccc4)cc3)c2N)ccc1F | < 100 nM
Nc1c(C(=O)c2ccc(F)cc2F)ccc(=O)n1-c1c(F)cc(OCCCN[C@@H](Cc2ccccc2)C(=O)O)cc1F | < 100 nM
Nc1c(C(=O)c2ccc(F)cc2)ccc(=O)n1-c1c(F)cc(OCCCN[C@H](C(=O)O)c2ccccc2)cc1F | < 100 nM
Nc1c(C(=O)c2ccc(F)cc2)ccc(=O)n1-c1c(F)cc(OCCCN[C@@H](Cc2ccccc2)C(=O)OC2CCCC2)cc1F | < 100 nM
CC(C)C[C@H](NCCCCCOc1cc(F)c(-n2c(N)c(C(=O)c3ccc(F)cc3F)ccc2=O)c(F)c1)C(=O)O | < 100 nM
CC(C)C[C@@H](NCCCOc1cc(F)c(-n2c(N)c(C(=O)c3ccc(F)cc3F)ccc2=O)c(F)c1)C(=O)O | < 100 nM
Nc1c(C(=O)c2ccc(F)cc2F)ccc(=O)n1-c1ccc(CN[C@H](C(=O)O)c2ccccc2)cc1 | < 100 nM
Cc1cc(C(=O)c2ccc(=O)n(-c3c(F)cc(OCCCN[C@H](C(=O)OC4CCCC4)c4ccccc4)cc3F)c2N)ccc1F | < 100 nM
Nc1c(C(=O)c2ccc(F)cc2)ccc(=O)n1-c1c(F)cc(OCCCN[C@@H](Cc2ccccc2)C(=O)O)cc1F | < 100 nM
Cc1cc(C(=O)c2ccc(=O)n(-c3c(F)cc(OCCCN[C@@H](CC(C)C)C(=O)OC4CCCC4)cc3F)c2N)ccc1F | < 100 nM
CC(C)(C)OC(=O)[C@@H](NCCCOc1cc(F)c(-n2c(N)c(C(=O)c3ccc(F)cc3F)ccc2=O)c(F)c1)C1CCCCC1 | < 100 nM
CC(C)C[C@H](NCc1cc(F)c(-n2c(N)c(C(=O)c3ccc(F)cc3F)ccc2=O)c(F)c1)C(=O)O | < 100 nM
CC(C)C[C@H](NCCCCCOc1cc(F)c(-n2c(N)c(C(=O)c3ccc(F)cc3F)ccc2=O)c(F)c1)C(=O)OC(C)(C)C | < 100 nM
CC(C)(C)OC(=O)[C@@H](NCCCOc1cc(F)c(-n2c(N)c(C(=O)c3ccc(F)cc3)ccc2=O)c(F)c1)c1ccccc1 | < 100 nM
Nc1c(C(=O)c2ccc(F)cc2F)ccc(=O)n1-c1c(F)cc(OCCCN[C@@H](C(=O)O)c2ccccc2)cc1F | < 100 nM
CC(C)C[C@H](NCCCOc1ccc(-n2c(N)c(C(=O)c3ccc(F)cc3F)ccc2=O)cc1)C(=O)OC(C)(C)C | < 100 nM
Nc1c(C(=O)c2ccc(F)cc2F)ccc(=O)n1-c1c(F)cc(OCCCN[C@H](C(=O)OC2Cc3ccccc3C2)c2ccccc2)cc1F | < 100 nM
CC(C)C[C@H](NCCc1ccc(-n2c(N)c(C(=O)c3ccc(F)cc3F)ccc2=O)cc1)C(=O)O | < 100 nM
Nc1c(C(=O)c2ccc(F)cc2F)ccc(=O)n1-c1ccc(CN[C@H](C(=O)OC2CCCC2)c2ccccc2)cc1 | < 100 nM
CCOC(=O)[C@H](CC(C)C)NCCCOc1cc(F)c(-n2c(N)c(C(=O)c3ccc(F)cc3)ccc2=O)c(F)c1 | < 100 nM
Cc1cc(C(=O)c2ccc(=O)n(-c3ccc(OCCCN[C@@H](Cc4ccccc4)C(=O)OC4CCCC4)cc3)c2N)ccc1F | < 100 nM
Nc1c(C(=O)c2ccc(F)cc2F)ccc(=O)n1-c1c(F)cc(OCCCN[C@H](C(=O)O)c2ccccc2)cc1F | < 100 nM
